Assay results from PubChem BioAssay (NCI).
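All cell lines were grown in 96-well plates and treated with compound for 48 hours. Definition used: TGI = concentration required for complete inhibition of growth.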

Legend:
Assay in all cases: inhibition of tumour cell growth, NCI panel, 48 h
UACC-62 melanoma = system: UACC-62 melanoma
COLO 205 colon = system: COLO 205 colon
EKVX NSCLC = system: EKVX NSCLC
SR leukemia = system: SR leukemia
786-0 renal = system: 786-0 renal
MDA-MB-435 = system: MDA-MB-435
SK-MEL-28 melanoma = system: SK-MEL-28 melanoma
NCI-H460 lung = system: NCI-H460 lung
SF-268 CNS = system: SF-268 CNS
A498 renal = system: A498 renal
CCRF-CEM leukemia = system: CCRF-CEM leukemia
HCT-116 colon = system: HCT-116 colon
HL-60(TB) leukemia = system: HL-60(TB) leukemia
IGROV1 ovarian = system: IGROV1 ovarian
NCI/ADR-RES ovarian = system: NCI/ADR-RES ovarian
KM12 colon = system: KM12 colon
MOLT-4 leukemia = system: MOLT-4 leukemia
ACHN renal = system: ACHN renal
M14 melanoma = system: M14 melanoma
LOX IMVI melanoma = system: LOX IMVI melanoma
HS 578T breast = system: HS 578T breast
HCT-15 colon = system: HCT-15 colon
MDA-N = system: MDA-N
U251 CNS = system: U251 CNS
MALME-3M melanoma = system: MALME-3M melanoma
T-47D breast = system: T-47D breast
RPMI-8226 leukemia = system: RPMI-8226 leukemia
HT29 colon = system: HT29 colon
BT-549 breast = system: BT-549 breast
MCF7 breast = system: MCF7 breast
TK-10 renal = system: TK-10 renal
K-562 leukemia = system: K-562 leukemia
NCI-H23 lung = system: NCI-H23 lung
OVCAR-8 ovarian = system: OVCAR-8 ovarian
RXF 393 renal = system: RXF 393 renal
OVCAR-3 ovarian = system: OVCAR-3 ovarian
SK-MEL-2 melanoma = system: SK-MEL-2 melanoma
DU-145 prostate = system: DU-145 prostate
PC-3 prostate = system: PC-3 prostate
HOP-92 NSCLC = system: HOP-92 NSCLC
SN12C renal = system: SN12C renal
SK-MEL-5 melanoma = system: SK-MEL-5 melanoma
SK-OV-3 ovarian = system: SK-OV-3 ovarian
UACC-257 melanoma = system: UACC-257 melanoma
CAKI-1 renal = system: CAKI-1 renal
SF-295 CNS = system: SF-295 CNS
HOP-62 NSCLC = system: HOP-62 NSCLC
SNB-75 CNS = system: SNB-75 CNS
A549 NSCLC = system: A549 NSCLC
UO-31 renal = system: UO-31 renal
SNB-19 CNS = system: SNB-19 CNS
NCI-H522 lung = system: NCI-H522 lung
MDA-MB-231 breast = system: MDA-MB-231 breast
OVCAR-4 ovarian = system: OVCAR-4 ovarian
OVCAR-5 ovarian = system: OVCAR-5 ovarian
SW-620 colon = system: SW-620 colon
HCC-2998 colon = system: HCC-2998 colon
SF-539 CNS = system: SF-539 CNS
NCI-H226 lung = system: NCI-H226 lung

Measured: TGI

CCOC(=O)c1c(CN2CCCC2)n(-c2ccccc2)c2cc(Br)c(O)cc12
44.9 µM: ACHN renal
32 µM: SF-295 CNS | A549 NSCLC
74.9 µM: HS 578T breast
49.7 µM: SF-268 CNS
29.8 µM: LOX IMVI melanoma
30.2 µM: SN12C renal
30.4 µM: U251 CNS
24.5 µM: UO-31 renal
47 µM: T-47D breast
66.5 µM: SK-OV-3 ovarian
41.2 µM: K-562 leukemia
39.5 µM: RPMI-8226 leukemia | MCF7 breast | DU-145 prostate
34.8 µM: CCRF-CEM leukemia
29 µM: M14 melanoma
31.6 µM: OVCAR-4 ovarian
57.9 µM: NCI/ADR-RES ovarian
41.7 µM: MOLT-4 leukemia
30.3 µM: HCT-116 colon | OVCAR-3 ovarian
22.4 µM: COLO 205 colon
32.2 µM: KM12 colon | MDA-N
36.5 µM: OVCAR-5 ovarian
26.7 µM: HOP-62 NSCLC
48.5 µM: PC-3 prostate
31 µM: 786-0 renal
40.8 µM: CAKI-1 renal
26.4 µM: SK-MEL-5 melanoma
31.1 µM: UACC-62 melanoma
49.1 µM: OVCAR-8 ovarian
36.3 µM: NCI-H522 lung
33.3 µM: SK-MEL-2 melanoma | SNB-19 CNS
27.5 µM: HL-60(TB) leukemia
42.8 µM: SR leukemia | NCI-H23 lung
32.8 µM: UACC-257 melanoma
30.6 µM: A498 renal
33.2 µM: MDA-MB-435
25.6 µM: RXF 393 renal
18.2 µM: HT29 colon
40.5 µM: HCT-15 colon
48 µM: TK-10 renal
35.5 µM: MALME-3M melanoma
39.7 µM: EKVX NSCLC | MDA-MB-231 breast
32.9 µM: NCI-H460 lung
36.7 µM: SNB-75 CNS
29.7 µM: SK-MEL-28 melanoma
42.5 µM: SW-620 colon
55.8 µM: BT-549 breast
44 µM: HOP-92 NSCLC
33.5 µM: IGROV1 ovarian

COC(=O)C1=C(C(=O)OC)SC(=C2SCSC3=C2SC(C(=O)OC)=C(C(=O)OC)C32SC3=C(CCCC3)S2)S1
36.3 µM: SNB-75 CNS
70 µM: RXF 393 renal
not listed: RPMI-8226 leukemia
> 100 µM: all other assays above

Nn1c(-c2ccccc2)n[nH]c1=O
not listed: K-562 leukemia | RXF 393 renal
> 100 µM: all other assays above
